Assay results from ChEMBL document CHEMBL1201862, “PubChem BioAssay data set” (2004).
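Cultured in 96-well plates, cells were exposed to test compound for 48 hours across five concentrations. Here, GI50 denotes the concentration required for 50% inhibition of growth.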 Activity calls are given as the source filed them. Cut-off read from the data, not from the text of the source: active = GI50 up to about 1.1 µM and inactive = higher.

Experiments:
Assay in all cases: NCI-60 cell line screen, 48 h
786-0 = system: 786-0
MCF7 = system: MCF7
SK-OV-3 = system: SK-OV-3
T47D = system: T47D
HOP-62 = system: HOP-62
MDA-N = system: MDA-N
SW-620 = system: SW-620
MDA-MB-435 = system: MDA-MB-435
NCI-H522 = system: NCI-H522
SN12C = system: SN12C
UACC-62 = system: UACC-62
BT-549 = system: BT-549
OVCAR-3 = system: OVCAR-3
MOLT-4 = system: MOLT-4
HCT-116 = system: HCT-116
DU-145 = system: DU-145
M14 = system: M14
NCI-H460 = system: NCI-H460
LOX IMVI = system: LOX IMVI
K562 = system: K562

Measured: GI50

O=C(O)Cn1cnc2c(O)nc(Nc3ccccc3)nc21
inactive: 786-0 > 100 µM | MCF7 > 100 µM | SK-OV-3 > 100 µM | T47D > 100 µM | HOP-62 > 100 µM | MDA-N > 100 µM | SW-620 > 100 µM | MDA-MB-435 > 100 µM | NCI-H522 > 100 µM | SN12C > 100 µM | UACC-62 > 100 µM | BT-549 > 100 µM | OVCAR-3 > 100 µM | MOLT-4 > 100 µM | HCT-116 > 100 µM | DU-145 > 100 µM | M14 > 100 µM | NCI-H460 > 100 µM | LOX IMVI > 100 µM

O=C(O)C(Cc1ccccc1-c1ccccc1)C(=O)O
inactive: 786-0 > 100 µM | MCF7 > 100 µM | K562 > 100 µM | T47D > 100 µM | MDA-N > 100 µM | SW-620 > 100 µM | MDA-MB-435 > 100 µM | NCI-H522 > 100 µM | SN12C > 100 µM | UACC-62 > 100 µM | BT-549 > 100 µM | OVCAR-3 97.1 µM | MOLT-4 > 100 µM | HCT-116 > 100 µM | DU-145 > 100 µM | M14 > 100 µM | NCI-H460 > 100 µM | LOX IMVI > 100 µM

COc1ccc(OC)c2nc3c(C(=O)NCCN(C)C)cccc3nc12
inactive: 786-0 3.05 µM | MCF7 3.48 µM | K562 3 µM | T47D 14.1 µM | HOP-62 4.55 µM | MDA-N 4.52 µM | SW-620 1.77 µM | MDA-MB-435 5.11 µM | NCI-H522 2.61 µM | SN12C 4.11 µM | UACC-62 7.71 µM | BT-549 10.8 µM | OVCAR-3 4.93 µM | MOLT-4 2.8 µM | HCT-116 1.79 µM | DU-145 5.21 µM | M14 4.69 µM | NCI-H460 3.24 µM | LOX IMVI 1.78 µM

CCCCNC(=S)Nc1nc(C(=O)NNC(=S)NCC)cs1
inactive: 786-0 > 100 µM | MCF7 > 100 µM | SK-OV-3 > 100 µM | T47D 16.7 µM | HOP-62 > 100 µM | MDA-N 82 µM | SW-620 97.9 µM | MDA-MB-435 > 100 µM | NCI-H522 > 100 µM | SN12C 56.8 µM | UACC-62 > 100 µM | BT-549 > 100 µM | OVCAR-3 44 µM | MOLT-4 50.4 µM | HCT-116 53.1 µM | DU-145 73.5 µM | M14 > 100 µM | LOX IMVI 33.2 µM

CCN(CC)c1ccc2cc(-c3csc(-c4ccc(N(C)C)cc4)n3)c(=O)oc2c1
inactive: 786-0 > 100 µM | MCF7 > 100 µM | K562 > 100 µM | SK-OV-3 > 100 µM | T47D > 100 µM | HOP-62 > 100 µM | MDA-N > 100 µM | SW-620 > 100 µM | MDA-MB-435 > 100 µM | NCI-H522 > 100 µM | SN12C > 100 µM | UACC-62 > 100 µM | BT-549 > 100 µM | MOLT-4 > 100 µM | HCT-116 > 100 µM | DU-145 > 100 µM | M14 > 100 µM | NCI-H460 > 100 µM | LOX IMVI > 100 µM

C1CSC2=C(S1)SC1=C(S2)SC(=C2SC3=C(SC4=C(SCCS4)S3)S2)S1
inactive: 786-0 > 100 µM | MCF7 > 100 µM | K562 > 100 µM | SK-OV-3 > 100 µM | T47D > 100 µM | HOP-62 > 100 µM | MDA-N > 100 µM | SW-620 > 100 µM | MDA-MB-435 > 100 µM | NCI-H522 > 100 µM | SN12C > 100 µM | UACC-62 > 100 µM | BT-549 > 100 µM | OVCAR-3 > 100 µM | MOLT-4 > 100 µM | HCT-116 > 100 µM | DU-145 > 100 µM | M14 > 100 µM | NCI-H460 > 100 µM

CCOC(=O)C1C(=O)CC(O)(OCC)C(C(=O)OCC)C1c1ccc(OC)cc1 (centres undefined)
inactive: 786-0 > 100 µM | MCF7 > 100 µM | K562 > 100 µM | T47D > 100 µM | HOP-62 > 100 µM | MDA-N > 100 µM | SW-620 > 100 µM | MDA-MB-435 > 100 µM | NCI-H522 > 100 µM | SN12C > 100 µM | UACC-62 > 100 µM | BT-549 > 100 µM | OVCAR-3 > 100 µM | MOLT-4 > 100 µM | HCT-116 > 100 µM | DU-145 > 100 µM | NCI-H460 > 100 µM | LOX IMVI > 100 µM

Cc1ccc(-n2nnc(C(N)=O)c2O)cc1
inactive: 786-0 > 100 µM | MCF7 > 100 µM | K562 > 100 µM | SK-OV-3 > 100 µM | T47D > 100 µM | HOP-62 > 100 µM | MDA-N > 100 µM | SW-620 > 100 µM | MDA-MB-435 > 100 µM | NCI-H522 > 100 µM | SN12C > 100 µM | UACC-62 > 100 µM | BT-549 > 100 µM | OVCAR-3 > 100 µM | MOLT-4 > 100 µM | HCT-116 > 100 µM | DU-145 > 100 µM | M14 > 100 µM | NCI-H460 > 100 µM
